In ChEMBL document CHEMBL3774380, “Development of Noviomimetics as C-Terminal Hsp90 Inhibitors” (ACS Med Chem Lett, 2016):
The source made the active and inactive calls. The calls are words filed in the database; no cut-off is given here.

species on record: Rattus norvegicus; experiment: Inhibition of Hsp90 in rat 50B11 cells expressing human HSPA1A gene assessed as increase in Hsp70 level at 10 to 1000 nM after 16 hrs by luciferase reporter assay; format: cell-based

SMILES	inhibition
CC(=O)NCCc1ccc(O[C@@H]2CC[C@@H](OCc3ccccc3)C2)cc1-c1cccc(F)c1	inactive
CC(=O)NCCc1ccc(O[C@H]2CC[C@@H](OCc3ccccc3)C2)cc1-c1cccc(F)c1	inactive
CC(=O)NCCc1ccc(OC2CCC(O)CC2)cc1-c1cccc(F)c1 (mixture of isomers)	Active
CC(=O)NCCc1ccc(OC2CCC(OCc3ccccc3)CC2)cc1-c1cccc(F)c1 (mixture of isomers)	Active
CC(=O)NCCc1ccc(OC2CCCC(O)C2)cc1-c1cccc(F)c1 (mixture of isomers)	Active
CC(=O)NCCc1ccc(OC2CCCC(OCc3ccccc3)C2)cc1-c1cccc(F)c1 (mixture of isomers)	Active
CC(=O)NCCc1ccc(OC2C[C@H](O)CO2)cc1-c1cccc(F)c1 (mixture of isomers)	inactive
CC(=O)NCCc1ccc(OC2OCCC2O)cc1-c1cccc(F)c1 (mixture of isomers)	inactive
CC(=O)NCCc1ccc(OC2OC[C@@H](O)[C@H]2O)cc1-c1cccc(F)c1 (mixture of isomers)	inactive
CC(=O)NCCc1ccc(OC2C=CCC(C)(C)C2)cc1-c1cccc(F)c1 (racemic)	inactive
CC(=O)NCCc1ccc(OC2C=CCCC2)cc1-c1cccc(F)c1 (racemic)	inactive

species on record: Rattus norvegicus; experiment: Inhibition of Hsp90 in rat 50B11 cells assessed as increase in Hsp70 level at 0.5 to 1000 nM after 24 hrs by Western blot method; format: cell-based

SMILES	inhibition
CO[C@@H]1[C@@H](O)[C@@H](O)[C@H](Oc2ccc(CCNC(C)=O)c(-c3cccc(F)c3)c2)OC1(C)C	Active
CC(=O)NCCc1ccc(OC2CCC(OCc3ccccc3)CC2)cc1-c1cccc(F)c1 (mixture of isomers)	Active
